Results from patent US12448383B2, “Compounds and methods for treatment of viral infections” (priority 2022, dated 2025).

Columns and labels:
[1] = test system: Respiratory syncytial virus recombinant with luciferase (RSV-Luc5) in HEp-2 cells; experiment: microbe, parasite or virus in culture; format: cell-based; conditions: human respiratory syncytial virus, HEp-2, 72 h, read-out: RSV Hep2 EC50
[2] = test system: SARS Coronavirus 2 recombinant with NanoLuc (SARS-CoV2-NLuc) in A549-hACE2 cells; experiment: organism not typed; format: cell-based; conditions: 48 h; read-out: SARS-CoV2 EC50
[3] = test system: Respiratory syncytial virus recombinant with luciferase (RSV-Luc5) in Normal Human Bronchial Epithelial (NHBE) cells; experiment: microbe, parasite or virus in culture; format: cell-based; conditions: 72 h, read-out: RSV NHBE EC50
[4] = CC50 MT4 cytotoxicity (Cell-Titer Glo); format: cell-based; conditions: human
Method in brief: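 CC50 values are the concentrations cutting viability by 50%, fitted by non-linear regression against untreated (100%) and 2 μM puromycin (0%) controls. Cell-Titer Glo luminescence measured after 4-5 days at 37° C exposure of uninfected MT-4 and HEp-2 cells to 3-fold dilutions spanning 15 nM to 100,000 nM.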

GI S9 stability = format: in vitro ADME; conditions: human, s9, pH 7.4
Procedure: Example G: GI S9 Stability
Duplicate aliquots of test compound or positive control substrate (GS-7340) were added to S9 stock diluted with 100 mM phosphate buffered saline, pH 7.4, to obtain a protein concentration of 1.0 mg/mL. The S9 metabolic reactions were initiated by the addition of the substrates to the S9 reaction mixture to a final concentration of 2 μM. At 0, 10, 20, 30, 60 and 120 min, […] aliquots of the reaction mixture were transferred to plates containing […] of IS/Q solution. After quenching, the plates were centrifuged at 3000 g for 30 minutes, and 150 μL aliquots of each supernatant were diluted with 150 μL water. Aliquots ([…]) of the diluted supernatant were analyzed on a Thermo Q-Exactive mass spectrometer as described below. GI S9 Stability—No phenylmethylsulfonyl fluoride (PMSF): Similar to the procedure described above, test compounds were incubated at 2 μM with 1 mg/mL PMSF-free Intestinal S9 fractions. Samples are removed at 6 time points over the course of a 120 min experiment and the parent compound disappreance and reference compound A formation is determined by mass spectrometry.
Example K: Liquid Chromatography/Mass Spectroscopy Methods for S9 and Plasma Stability
Quantification of test compounds, Reference Compound A (S9 stability assay nucleoside metabolite), and controls was performed by analyte/internal standard peak area ratio (PAR) values measured on a Thermo Q-Exactive mass spectrometer coupled to a Dionex UltiMate 3000 HPLC with a Leap Technologies HTC PAL autosampler. The column used for analysis of test compounds and Reference Compound A was a Waters Acquity BEH C18 ([…] particle size, 2.1′50 mm). The column used for control (GS-7340) was a Thermo Hypersil GOLD ([…] particle size, 2.1′50 mm). Mobile phase A consisted of 0.1% (v/v) formic acid in water. Mobile phase B consisted of 0.1% (v/v) formic acid in acetonitrile. Elution of analytes was achieved by a series of linear gradients of acetonitrile in water containing 0.1°(v/v) formic acid. The mass spectrometer was calibrated on a weekly basis and mass tolerance of 5 ppm was used.

Plasma stability = format: in vitro ADME; design: unit not given here; conditions: 37° C., 2 μM substrate
Method in brief: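 LC-MS (Q-Exactive, 5 ppm tolerance, 0.1% formic acid water/acetonitrile gradient) quantified compound in quenched aliquots. Aliquots were taken at 0.05, 0.5, 1, 2, 3 and 4 hr and quenched with internal-standard solution, and supernatants were diluted with water after centrifugation.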

[5] = GI S9 stability - no PMSF; format: in vitro ADME; conditions: pH 7.4; human intestinal S9, PMSF-free; read-out: GIS9-HUMAN-NoPMSF T1/2
Method in brief: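 Stability was assessed by Q-Exactive LC-MS peak area ratios against internal standard, tracking loss of parent and appearance of nucleoside metabolite Reference Compound A. Incubations used 2 μM compound in 1 mg/mL intestinal S9 without PMSF (PBS, pH 7.4), with six samples taken over 120 min.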

[6] = test system: Caco-2 cells (clone C2BBe1); experiment: CACO-2 permeability; format: in vitro ADME; design: unit not given here; conditions: for DM Caco2 A to B: apical to basolateral, donor pH 6.5, receiver pH 7.4; for DM Caco2 B to A: basolateral to apical
Method in brief: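 A-to-B and B-to-A flux measured by LC-MS/MS from receiver samples taken at 1 and 2 h, with donor sampled at 0 and 2 h and recovery checked. Buffers: pH 6.5 HBSS with 200 μM BNPP on the donor side, pH 7.4 with BSA on the receiver side. Monolayers were 21-day cultures, TEER-verified, in duplicate wells.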

[7] = Thermodynamic solubility in pH7 buffered solution; conditions: 50 mM phosphate buffer pH7, 150 mM NaCl, ambient temperature, 24 hours
Procedure: Solubility was determined at ambient temperature in a 50 mM phosphate buffered pH7 solution with 150 mM NaCl (to achieve isotonicity). Solids were added to the buffered solution in 1.5-mL Eppendorf tubes, vortexed for 1 minute, then agitated for 24 hours in an Eppendorf ThermoMixer C. […] Supernatants were diluted to a volume of 1 mL with 30:70 v/v acetonitrile:water. All diluted supernatants were analyzed by UPLC using a Waters Acquity UPLC with a PDA UV detector.

[8] = Stability in pH2 buffered solution; format: physicochemical; conditions: pH2 phosphate buffer, 40° C., 24 h; Table N2
Procedure: (§1) Example N: Stability in p112 and p117 Buffered Solutions
(§2) The aqueous stability of compounds over a time of 24 hours at 40° C. was assessed. Stability was determined in 50 mM phosphate buffered solutions at both pH2 and pH7, with 150 mM NaCl (to achieve isotonicity). 3-5 mg of solid compounds were added to 7 mL scintillation vials. Acetonitrile was added to each vial to produce a 1 mg/mL stock solution. Stock solutions were diluted to 50 μg/mL in either pH2 or pH7 phosphate buffer, to a volume of 1 mL. For each compound and pH condition, 50 μg/mL samples were prepped in duplicate. One sample was placed on the UPLC tray at 40° C. for analysis, and the second sample was placed in a 40° C. oven for storage. Sample preps for each compound were offset by 40 minutes to account for run time on UPLC.
(§3) Concentration timepoints were measured at 0, 3, 6, 9, and 12 hrs. After 24 hrs, samples in the 40° C. oven were removed and analyzed by UPLC.
(§4) In FIG. 2, % AN stands for % area normalized. That is, % AN is the area of the compound peak relative to the sum of areas of all the peaks in the UPLC chromatogram. For example, if there were two peaks, compound peak with an area of 9 and another peak with an area of 1, then the % AN of the compound peak would be 90%.

[9] = Stability in pH7 buffered solution; format: physicochemical; conditions: pH7 phosphate buffer, 40° C., Table N2
Procedure: as §1, §2, §3, §4

Compound	EC50 [1]	EC50 [2]	EC50 [3]	CC50 [4]	half-life at 2 µM (GI S9 stability)	STA Human Plasma 37 (Plasma stability)	half-life at 2 µM [5]	DM Caco2 A to B [6]	DM Caco2 B to A [6]	Sol pH 7 [7]	pH 2 Stability 24 h % AN [8]	pH 7 Stability 24 h % AN [9]
N#C[C@@]1(c2ccc3c(N)ncnn23)O[C@H](COC(=O)OC2CCOC2)[C@@H](O)[C@H]1O (stereo partly drawn) [Compound 11, ((2R,3S,4R,5R)-5-(4-aminopyrrolo[2,1-f][1,2,4]triazin-7-yl)-5-cyano-3,4-dihydroxytetrahydrofuran-2-yl)methyl (tetrahydrofuran-3-yl) carbonate]	4.94 µM	20.6 µM	2.92 µM	> 50 µM	≥ 789 min	135.19						
CC(C)COC(=O)OC[C@H]1O[C@@](C#N)(c2ccc3c(N)ncnn23)[C@H](OC(=O)C(C)C)[C@@H]1OC(=O)C(C)C [Compound 16, (2R,3R,4R,5R)-2-(4-aminopyrrolo[2,1-f][1,2,4]triazin-7-yl)-2-cyano-5-(((isobutoxycarbonyl)oxy)methyl)tetrahydrofuran-3,4-diyl bis(2-methylpropanoate)]	1.15 µM	2.57 µM	0.981 µM	27.8 µM	1.01 min	30.6						
COC(=O)[C@H]([C@@H](C)OC(=O)OC[C@H]1O[C@@](C#N)(c2ccc3c(N)ncnn23)[C@H](O)[C@@H]1O)N(C)C [Compound 78, methyl O-((((2R,3S,4R,5R)-5-(4-aminopyrrolo[2,1-f][1,2,4]triazin-7-yl)-5-cyano-3,4-dihydroxytetrahydrofuran-2-yl)methoxy)carbonyl)-N,N-dimethyl-L-threoninate]		3.58 µM	3.6 µM	> 50 µM		336.23	4320 s	0.2	4.2	0.89	90 % AN	0 % AN
CC(=O)O[C@H]1[C@@H](OC(C)=O)[C@](C#N)(c2ccc3c(N)ncnn23)O[C@@H]1COC(=O)OC(C)(C)c1ccncc1 [Compound 79, (2R,3R,4R,5R)-2-(4-aminopyrrolo[2,1-f][1,2,4]triazin-7-yl)-2-cyano-5-(((((2-(pyridin-4-yl)propan-2-yl)oxy)carbonyl)oxy)methyl)tetrahydrofuran-3,4-diyl diacetate]		> 50 µM	> 50 µM	> 50 µM		17.837	40.9 s	0.61	9.26	0.26	88 % AN	77 % AN
CC(C)OC(=O)OC[C@H]1O[C@@](C#N)(c2ccc3c(N)ncnn23)[C@H](OC(=O)OC(C)C)[C@@H]1OC(=O)OC(C)C [Compound 81, (2R,3R,4R,5R)-2-(4-aminopyrrolo[2,1-f][1,2,4]triazin-7-yl)-2-cyano-5-(((isopropoxycarbonyl)oxy)methyl)tetrahydrofuran-3,4-diyl diisopropyl bis(carbonate)]		24.4 µM	0.996 µM	48.3 µM		195.87	41.3 s	7.77	14.74	0.06	100 % AN	98 % AN
COC(=O)OC[C@H]1O[C@@](C#N)(c2ccc3c(N)ncnn23)[C@H](OC(=O)OC)[C@@H]1OC(=O)OC [Compound 93, (2R,3R,4R,5R)-2-(4-aminopyrrolo[2,1-f][1,2,4]triazin-7-yl)-2-cyano-5-(((methoxycarbonyl)oxy)methyl)tetrahydrofuran-3,4-diyl dimethyl bis(carbonate)]		10.6 µM	11.1 µM	31.7 µM		28.444	61 s	1.2	8.3	0.62	94 % AN	75 % AN
CCOC(=O)OC[C@H]1O[C@@](C#N)(c2ccc3c(N)ncnn23)[C@H](OC(=O)OCC)[C@@H]1OC(=O)OCC [Compound 106, (2R,3R,4R,5R)-2-(4-aminopyrrolo[2,1-f][1,2,4]triazin-7-yl)-2-cyano-5-(((ethoxycarbonyl)oxy)methyl)tetrahydrofuran-3,4-diyl diethyl bis(carbonate)]		4.56 µM	1.4 µM	> 50 µM		30.917	39.6 s	4.975	9.5	0.08	100 % AN	91 % AN
CCC1O[C@H]2[C@@H](O1)[C@](C#N)(c1ccc3c(N)ncnn13)O[C@@H]2COC(=O)OC(C)C (stereo partly drawn) [Compound 133, ((3aR,4R,6R,6aR)-6-(4-aminopyrrolo[2,1-f][1,2,4]triazin-7-yl)-6-cyano-2-ethyltetrahydrofuro[3,4-d][1,3]dioxol-4-yl)methyl isopropyl carbonate]		> 50 µM	> 50 µM	> 50 µM		73.357	37.4 s	17.25	16.82	0.24	95 % AN	98 % AN
